The assay concerns the target human GSK3β (Homo sapiens, UniProt P49841). The assay can be described thus: Screening for GSK3 inhibitory activity using a cell-free assay. The class given is biochemical. Particulars: read-out: IC50 with respect to GSK3. Here is the method:
This amount represents the amount of radiolabeled phosphate incorporated into the peptide substrate.
The captured radiolabeled peptide substrate can be quantitated in a scintillation counter using known methods. […] If an inhibitor is present during the reaction, GSK3 activity will be reduced, and a smaller quantity of radiolabeled phosphate will thus be incorporated into the peptide substrate.
Pyrimidine and pyridine compounds of the present invention were dissolved in DMSO, then tested for inhibition of human GSK3β (the nucleotide sequence for human GSK3β appears in GenBank under Accession No. L33801).
While the reaction was proceeding, streptavidin-coated Labsystems “Combiplate 8” capture plates (Labsystems, Helsinki, Finland) were blocked by incubating them with 300 μl/well of PBS containing 1% bovine serum albumin for at least one hour at room temperature. The blocking solution was then removed by aspiration, and the capture plates were filled with 100 ul/well of stopping reagent (50 μM ATP/20 mM EDTA).
When the three hour enzyme reaction was finished, triplicate 100 μl aliquots of each reaction mix were transferred to three wells containing stopping solution, one well on each of the three capture plates, and the well contents were mixed well. […] Finally, 200 μl of Microscint-20 scintillation fluid was added to each well of the plate. The plates were coated with plate sealers, then left on a shaker for 30 minutes. Each capture plate was counted in a Packard TopCount scintillation counter (Meridian, Conn.) and the results were plotted as a function of compound concentration.
human GSK3β, sequence (P49841 whole entry): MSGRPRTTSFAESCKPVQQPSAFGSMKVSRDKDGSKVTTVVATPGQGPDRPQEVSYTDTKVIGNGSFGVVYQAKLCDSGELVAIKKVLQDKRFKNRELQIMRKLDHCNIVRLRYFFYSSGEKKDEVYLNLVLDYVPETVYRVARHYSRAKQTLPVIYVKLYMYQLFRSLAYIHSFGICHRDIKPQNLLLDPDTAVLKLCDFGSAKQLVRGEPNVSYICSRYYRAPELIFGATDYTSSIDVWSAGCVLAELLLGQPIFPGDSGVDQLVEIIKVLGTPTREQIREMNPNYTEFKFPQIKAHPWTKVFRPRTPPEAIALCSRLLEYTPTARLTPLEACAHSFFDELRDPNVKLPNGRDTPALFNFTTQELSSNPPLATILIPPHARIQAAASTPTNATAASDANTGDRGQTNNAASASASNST
Regarding `NC(=O)c1ccc(-c2ccnc(NCCCc3nc(Cl)c(Cl)[nH]3)n2)cc1` [4-(2-{[3-(4,5-dichloroimidazolyl)propyl]amino}pyrimidin-4-yl)benzamide], the IC50 is ≤ 1 µM.

On to `CC(C)(C)NC(=O)c1cnc(NCCNc2ccc([N+](=O)[O-])cn2)nc1-c1ccc(C#N)cc1` [N-(tert-butyl)[4-(4-cyano-phenyl)-2-({2-[(5-nitro(2-pyridyl))amino]ethyl}amino)pyrimidin-5-yl]carboxamide], for which the IC50 was ≤ 1 µM.

`CCOC(=O)c1cnc(NCCNc2ccc([N+](=O)[O-])cn2)nc1NCc1ccc(C#N)cc1` [ethyl 4-{[(4-cyanophenyl)methyl]amino}-2-({2-[(5-nitro(2-pyridyl))amino]-ethyl}amino)pyrimidine-5-carboxylate]: the IC50 was ≤ 1 µM.

As for `NC(=O)C(Cc1ccccc1)NC(=O)c1ccc(-c2ccnc(NCCc3ccccn3)n2)cc1` (centres unmarked) [N-(1-carbamoyl-2-phenyl-ethyl)(4-{2-[(2-(2-pyridyl)ethyl)amino]pyrimidin-4-yl}phenyl)carboxamide], the IC50 was ≤ 10 µM.

Consider `CCOC(=O)c1c(CC)nc(NCCCNc2ccc([N+](=O)[O-])cn2)nc1-c1ccc(C(N)=O)cc1` [ethyl 4-(4-carbamoylphenyl)-6-ethyl-2-({3-[(5-nitro(2-pyridyl))amino]propyl}amino)pyrimidine-5-carboxylate], for which the IC50 was ≤ 10 µM.

With `O=C(NCc1cccc(Br)c1)c1ccc(-c2ccnc(NCCNc3ccc(C(F)(F)F)cn3)n2)cc1` [N-[(3-bromophenyl)methyl](4-{2-[(2-{[5-(trifluoromethyl)(2-pyridyl)]amino}ethyl)amino]pyrimidin-4-yl}phenyl)-carboxamide], the IC50 was ≤ 10 µM.

Consider `COc1cccc(OCCCNc2nccc(-c3ccc(C(N)=O)cc3)n2)c1` [4-(2-{[3-(3-methoxyphenoxy)propyl]-amino}pyrimidin-4-yl)benzamide], for which the IC50 was ≤ 10 µM.

As to `NC(=O)c1ccc(-c2ccnc(NCCc3ccc(F)cc3)n2)cc1` [4-(2-{[2-(4-fluorophenyl)ethyl]amino}pyrimidin-4-yl)benzamide], the IC50 is ≤ 10 µM.

For the molecule `O=[N+]([O-])c1ccc(NCCNc2nccc(NCc3cccc(Br)c3)n2)nc1` [(4-{[(3-bromophenyl)methyl]amino}pyrimidin-2-yl){2-[(5-nitro(2-pyridyl))amino]ethyl}-amine], the IC50 was ≤ 10 µM.

As to `CN1CCN(c2cnc(NCCNc3ccc([N+](=O)[O-])c(N)n3)nc2-c2ccc(Cl)cc2Cl)CC1` [{2-[(6-amino-5-nitro(2-pyridyl))amino]ethyl}[4-(2,4-dichlorophenyl)-5-(4-methylpiperazinyl)-pyrimidin-2-yl]amine], the 50% inhibitory concentration (IC50) is ≤ 1 µM.

`CN(C)C1CC(=O)N(c2cnc(NCCNc3ccc([N+](=O)[O-])c(N)n3)nc2-c2ccc(Cl)cc2Cl)C1=O` (centres unmarked) [1-[2-({2-[(6-amino-5-nitro(2-pyridyl))amino]ethyl}amino)-4-(2,4-dichlorophenyl)pyrimidin-5-yl]-3-(dimethylamino)pyrrolidine-2,5-dione]: the IC50 is ≤ 1 µM.

As for `Cc1nccn1-c1cnc(NCCNc2ccc([N+](=O)[O-])cn2)nc1-c1ccc(Cl)cc1Cl` [[4-(2,4-dichlorophenyl)-5-(2-methylimidazolyl)pyrimidin-2-yl]{2-[(5-nitro(2-pyridyl))amino]ethyl}amine], the IC50 is ≤ 1 µM.

`Cc1cccc(CNC(=O)c2ccc(-c3ccnc(NCc4cccc(Br)c4)n3)cc2)c1` [[4-(2-{[(3-bromophenyl)methyl]amino}pyrimidin-4-yl)phenyl]-N-[(3-methylphenyl)methyl]carboxamide]: the IC50 is ≤ 10 µM.

Turning to `FC(F)(F)c1ccc(NCCNc2ncc(-c3ncc[nH]3)c(-c3ccc(Cl)cc3Cl)n2)nc1` [[4-(2,4-dichlorophenyl)-5-imidazol-2-ylpyrimidin-2-yl](2-{[5-(trifluoromethyl)(2-pyridyl)]amino}ethyl) amine], the IC50 was ≤ 1 µM.

On to `O=[N+]([O-])c1ccc(NCCNc2ncc(-c3ncc[nH]3)c(-c3ccc(Cl)cc3Cl)n2)nc1` [[4-(2,4-dichlorophenyl)-5-imidazol-2-ylpyrimidin-2-yl]{2-[(5-nitro(2-pyridyl))amino]ethyl}amine], for which the IC50 is ≤ 1 µM.

On to `N#Cc1ccc(NCCNc2ncc(-c3ncc[nH]3)c(-c3ccc(Cl)cc3Cl)n2)nc1` [6-[(2-{[4-(2,4-dichlorophenyl)-5-imidazol-2-ylpyrimidin-2-yl]amino}ethyl)amino]pyridine-3-carbonitrile], for which the IC50 is ≤ 1 µM.

For the molecule `COCCNC(=O)c1ccc(-c2ccnc(NCCNc3ccc([N+](=O)[O-])cn3)n2)cc1` [N-(2-methoxyethyl){4-[2-({2-[(5-nitro(2-pyridyl))amino]ethyl}amino)pyrimidin-4-yl]phenyl}carboxamide], the IC50 was ≤ 10 µM.

Turning to `FC(F)(F)Oc1ccc(-c2ccnc(NCCNc3ccccn3)n2)cc1` [[2-(2-pyridylamino)ethyl]{4-[4-(trifluoromethoxy)-phenyl]pyrimidin-2-yl}amine], the IC50 was ≤ 10 µM.

For `CCOC(=O)c1cnc(NCCNc2ccc([N+](=O)[O-])cn2)nc1-c1ccc(-c2ccccc2)cc1` [ethyl 2-({2-[(5-nitro(2-pyridyl))amino]ethyl}amino)-4-(4-phenylphenyl)pyrimidine-5-carboxylate], the IC50 is ≤ 10 µM.

`Nc1nc(NCCNc2ncc(-c3ccncc3)c(-c3ccc(Cl)cc3Cl)n2)ccc1[N+](=O)[O-]` [{2-[(6-amino-5-nitro(2-pyridyl))amino]ethyl}[4-(2,4-dichlorophenyl)-5-(4-pyridyl)pyrimidin-2-yl]amine]: the IC50 was ≤ 1 µM.

For `CCOC(=O)c1cnc(NCCNc2ccc(C(=O)N3CCOCC3)cn2)nc1-c1ccc(C#N)cc1` [ethyl 4-(4-cyanophenyl)-2-[(2-{[5-(morpholin-4-ylcarbonyl)(2-pyridyl)]amino}ethyl)amino]pyrimidine-5-carboxylate], the IC50 was ≤ 10 µM.

With `CCOC(=O)c1cnc(NCCNc2ccc([N+](=O)[O-])cn2)nc1-c1ccc(S(C)(=O)=O)cc1` [ethyl 4-[4-(methyl-sulfonyl)phenyl]-2-({2-[(5-nitro(2-pyridyl))amino]ethyl}amino)pyrimidine-5-carboxylate], the IC50 was ≤ 1 µM.

With `CCOC(=O)c1c(-c2ccc(C(N)=O)cc2)nc(NCCNc2ccc([N+](=O)[O-])cn2)nc1-c1ccc([N+](=O)[O-])cc1` [ethyl 4-(4-carbamoylphenyl)-2-({2-[(5-nitro(2-pyridyl))amino]ethyl}-amino)-6-(4-nitrophenyl)pyrimidine-5-carboxylate], the IC50 is ≤ 1 µM.

With `CCCCOc1ccc(-c2nc(NCCNc3ccc([N+](=O)[O-])cn3)ncc2C(=O)OCC)cc1` [ethyl 4-(4-butoxyphenyl)-2-({2-[(5-nitro(2-pyridyl))amino]ethyl}amino)pyrimidine-5-carboxylate], the IC50 was ≤ 10 µM.

In the case of `Nc1nc(NCCNc2ncc(-n3cnc(-c4ccccc4)c3)c(-c3ccc(Cl)cc3Cl)n2)ccc1[N+](=O)[O-]` [{2-[(6-amino-5-nitro(2-pyridyl))amino]ethyl}[4-(2,4-dichlorophenyl)-5-(4-phenylimidazolyl)pyrimidin-2-yl]amine], the IC50 was ≤ 1 µM.

As to `NC(=O)c1ccc(-c2ccnc(NCCCOc3ccc(Cl)c(Cl)c3)n2)cc1` [4-(2-{[3-(3,4-dichlorophenoxy)-propyl]amino}pyrimidin-4-yl)benzamide], the IC50 is ≤ 10 µM.

What is called IC50 is the point on the concentration scale where inhibition reaches its midpoint.

For the origin of these results see patent US7425557B2, “Inhibitors of glycogen synthase kinase 3” (Novartis Vaccines and Diagnostics, Inc., priority 1998, dated 2008).
